This note sets out measurements from patent US9126945B2, “N-(3-carbamoylphenly)-1H-pyrazole-5-carboxamide derivatives and the use thereof for controlling animal pests” (BAYER INTELLECTUAL PROPERTY GMBH, priority 2011, dated 2015).

The structures appear in SMILES notation.

The test system of data set [1] is Myzus persicae. Nature of the data set: Myzus test (MYZUPE spray treatment). Type of data set: in vivo. How it is done:
Myzus test (Myzupe spray treatment)
After 6 days, the efficacy in % is determined.
Myzus Test (MYZUPE Spray Treatment)

For data set [2], the system named is Tetranychus urticae. Nature of the data set: Tetranychus test, OP-resistant (TETRUR spray treatment), bean leaf discs. Type of data set: in vivo. Conditions: application rate 500 g/ha; after 6 days. How it is done: Tetranychus Test, OP-Resistant (TETRUR Spray Treatment)
After a time of 6 days, the efficacy in % is determined.

The subject of data set [3] is Lucilia cuprina larvae. In words: Lucilia cuprina test (LUCICU). Type of data set: in vivo. Conditions: 100 ppm; after 2 days. How it is done:
Lucilia cuprina Test (LUCICU)
(§1) Solvent: dimethyl sulphoxide
Vessels containing horse meat treated with the active compound preparation of the desired concentration are populated with about 20 Lucilia cuprina larvae.
(§2) After 2 days, the kill in % is determined.

Data set [4] concerns Musca domestica. In words: Musca domestica test (MUSCDO). Type of data set: in vivo. How it is done: Musca domestica Test (MUSCDO)
as §1
Vessels containing a sponge treated with the active compound preparation of the desired concentration are populated with adult Musca domestica.
as §2
Vessels containing a sponge treated with the active compound formulation of the desired concentration are populated with adult Musca domestica.
After the desired period of time, the kill in % is determined.

For data set [5], the system named is Boophilus microplus females of the SP-resistant Parkhurst strain. In words: Boophilus microplus test (DIP). Type of data set: in vivo. Conditions: 100 ppm. An outline of the steps:
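Engorged adult females (8–10 per tube) immersed in compound diluted in water from DMSO solution, concentration in ppm. Kept on filter discs in a climatized room; efficacy from fertile egg laying, assessed after 7 days, 100% meaning no fertile eggs laid.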

The subject of data set [6] is Spodoptera frugiperda. Nature of the data set: Spodoptera frugiperda spray test (SPODFR), cotton leaves, ppm. Conditions: 168 h, 7 dat. Type of data set: in vivo. The text has this: Spodoptera frugiperda Spray Test (SPODFR)
(§3) Solvent: 7 parts by weight of dimethylformamide
(§4) Emulsifier: 2 parts by weight of alkylaryl polyglycol ether
(§5) If the addition of ammonium salts or/and penetrants is required, these are in each case added in a concentration of 1000 ppm to the solution of the preparation.
Cotton leaves (Gossypium hirsutum) are sprayed with an active compound formulation of the desired concentration and populated with caterpillars of the armyworm (Spodoptera frugiperda).

For data set [7], the system named is Heliothis armigera. Nature of the data set: Heliothis armigera spray test (HELIAR). Type of data set: in vivo. The settings on record: Helicoverpa armigera, 168 h, 7 dat.
Excerpt: Heliothis armigera Spray Test (HELIAR)
as §3, §4, §5

For data set [8], the system named is Tetranychus urticae. In words: Tetranychus urticae spray test, OP-resistant (TETRUR), bean plants, ppm. Type of data set: in vivo. The settings on record: 168 h, 7 dat.
Excerpt: Tetranychus urticae Spray Test, OP-Resistant (TETRUR)
as §3, §4, §5

For data set [9], the system named is Nilaparvata lugens. Nature of the data set: Nilaparvata lugens spray test (NILALU). Type of data set: in vivo. The settings on record: 168 h, 7 dat.
Excerpt: Nilaparvata lugens Spray Test (NILALU)
as §5

Data set [10] concerns Frankliniella occidentalis. In words: Frankliniella occidentalis spray test (FRANOC). Type of data set: in vivo. Conditions: 168 h, 7 dat.
Excerpt: Frankliniella occidentalis Spray Test (FRANOC)
as §5

Data set [11] relates to Liriomyza trifolii. In words: Liriomyza trifolii spray test (LIRITR). Type of data set: in vivo. Conditions: 168 h, 7 dat.
Excerpt: Liriomyza trifolii Spray Test (LIRITR)
as §5

Data set [12] is described as follows: log P by HPLC, EEC Directive 79/831 Annex V.A8, method a). Conditions: reversed-phase C18 HPLC column; cell marked a): HPLC, reversed-phase C18, acetonitrile/water with formic acid, gradient 10% to 95% acetonitrile. Type of data set: physicochemical. The gist of the method: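 Reversed-phase C18 HPLC (50*4.6, 1.8 micron) per EEC Directive 79/831 Annex V.A8, acetonitrile/water with formic acid, gradient 10% to 95% acetonitrile over 4.25 min then 1.25 min hold; 55° C, 2.0 ml/min, with MS detection.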

For data set [13], the system named is Phaedon cochleariae. In words: Phaedon test (PHAECO spray treatment), Chinese cabbage leaf discs.
The mark [14] stands for this setting: Phaedon cochleariae, in Brassica rapa, foliar, 168 h, read-out: % Activity dat.

As for `Cn1nc(C(F)(F)C(F)(F)F)c(C(F)(F)F)c1C(=O)Nc1ccc(Cl)c(C(=O)NC2(C#N)CC2)c1` [Example 10], the inhibition at 20 g/ha in [1] (Myzus persicae, 144 h, MYZUPE, 20 g/ha, 6 dat) worked out at 80%; in data set [10] (20 g/ha), 90%; in [13] (setting [14]) it was 100%. Further, the inhibition at 100 g/ha was determined as 100% in data set [1] (Myzus persicae, 144 h, MYZUPE, 100 g/ha, 6 dat); 100% in data set [9] (100 g/ha); 100% in [13] (setting [14]). Moreover, the inhibition at 500 g/ha in data set [1] (Myzus persicae, 144 h, MYZUPE, 500 g/ha, 6 dat) worked out at 100%; in [9] (500 g/ha) it was 100%; in data set [10] (500 g/ha), 100%; in data set [11], 100%. Further, the efficacy in % worked out at 100% in data set [1] (application rate 500 g/ha, after 6 days); 90% in data set [2]; 100% in data set [13] (application rate 500 g/ha, after 7 days). For the same molecule, the “kill in % (efficacy)” value in [3] is recorded as 100%; in [4] (100 ppm, after 2 days), 100%. The inhibition at 100 ppm was 100% in data set [4] (Musca domestica, 48 h, MUSCDO, 2 dat); 100% in data set [5] (Rhipicephalus microplus, 168 h, BOOPMI DIP, 7 dat); 100% in data set [7] (100 ppm). In data set [5] (after 7 days), the “efficacy in % (laying of fertile eggs)” value worked out at 100%. The inhibition at 20 ppm in data set [6], in [7] (20 ppm) and in data set [8] (20 ppm) was 100% in each case. The same molecule came in with an inhibition at 4 ppm in data set [8] (4 ppm) of 100%. The molecule also yielded a chromatographic logP in [12] of 3.27.
